Measured values taken from the NIST ThermoML archive (doi:10.1021/acs.jced.6b00037).
± gives the expanded uncertainty stated by the source.

Key:
[1] = Molar enthalpy of transition or fusion; conditions: Crystal; DSC
[2] = Crystal; DSC

For `CCOC(=O)c1ccc(N)cc1` [ethyl 4-aminobenzoate], the “Molar enthalpy of transition or fusion” value [1] was 5.24 ± 0.237 kcal/mol and the Triple point temperature [2] was 363.2 ± 1.2 K.
